# Measured values taken from patent publication US8802597B2, “Herbicidal pyrimidines” (E I du Pont de Nemours and Company, priority 2003, dated 2014).
# Read-outs that look alike come from different tables or passages of the source.
# Experiments:
# Assay type in all cases: in vivo
# [1] = tested on: crabgrass (Digitaria sanguinalis); assay: Test C pre/postemergence; details: Digitaria sanguinalis; for pest or weed control at 31 g/ha: 31 g ai/ha; for pest or weed control at 62 g/ha: 62 g ai/ha; for pest or weed control at 125 g/ha: 125 g ai/ha; for pest or weed control at 250 g/ha: 250 g ai/ha
# Method in brief: (§1)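 Visual injury ratings, 0 (no effect) to 100 (complete control), made 12 to 14 days after treatment by comparison with untreated controls. Greenhouse plants received test chemical in a surfactant-containing non-phytotoxic solvent, either preemergence on planted seeds or postemergence at the 1- to 4-leaf stage.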
# [2] = tested on: yellow nutsedge (Cyperus esculentus); assay: Test C pre/postemergence; details: Cyperus; for pest or weed control at 31 g/ha: 31 g ai/ha; for pest or weed control at 62 g/ha: 62 g ai/ha; for pest or weed control at 125 g/ha: 125 g ai/ha; for pest or weed control at 250 g/ha: 250 g ai/ha
# Method in brief: as §1
# soybean (Glycine max) = assay: Test C pre/postemergence; details: Glycine max; for plant injury at 31 g/ha: 31 g ai/ha; for plant injury at 62 g/ha: 62 g ai/ha; for plant injury at 125 g/ha: 125 g ai/ha; for plant injury at 250 g/ha: 250 g ai/ha
# Method in brief: as §1
# wild oat (Avena fatua) = assay: Test C postemergence
# Method in brief: as §1
# [3] = tested on: green foxtail (Setaria viridis); assay: Test C postemergence
# Method in brief: as §1
# [4] = tested on: downy brome (Bromus tectorum); assay: Test C postemergence
# Method in brief: as §1
# [5] = tested on: canarygrass (Phalaris minor); assay: Test C postemergence
# Method in brief: as §1
# [6] = tested on: wheat (Triticum aestivum); assay: Test C postemergence
# Method in brief: as §1
# [7] = tested on: Italian ryegrass (Lolium multiflorum); assay: Test C postemergence
# Method in brief: as §1
# [8] = tested on: winter barley (Hordeum vulgare); assay: Test C postemergence
# Method in brief: as §1
# [9] = tested on: blackgrass (Alopecurus myosuroides); assay: Test C postemergence
# Method in brief: as §1
# [10] = tested on: windgrass (Apera spica-venti); assay: Test C postemergence
# Method in brief: as §1
# [11] = post-emergence, Postemergence, scale 0 to 100 (0 no effect, 100 complete control), read-out: Crabgrass plant response rating
# [12] = pre-emergence, Preemergence, scale 0 to 100, 0 no effect, 100 complete control, read-out: Plant response rating, Crabgrass
# [13] = pre-emergence, Preemergence, scale 0 to 100, read-out: Plant response rating, Crabgrass
# [14] = post-emergence, Postemergence, scale 0 to 100 (0 no effect, 100 complete control), read-out: Nutsedge, Yellow plant response rating
# [15] = pre-emergence, Preemergence, scale 0 to 100, 0 no effect, 100 complete control, read-out: Plant response rating, Nutsedge, Yellow
# [16] = pre-emergence, Preemergence, scale 0 to 100, read-out: Plant response rating, Nutsedge, Yellow
# [17] = post-emergence, Postemergence, scale 0 to 100 (0 no effect, 100 complete control), read-out: Soybean plant response rating
# [18] = pre-emergence, Preemergence, scale 0 to 100, 0 no effect, 100 complete control, read-out: Plant response rating, Soybean
# [19] = pre-emergence, Preemergence, scale 0 to 100, read-out: Plant response rating, Soybean
smiles,measurement,setting,value
"CCOC(=O)c1nc(-c2ccc(Cl)cc2)nc(N)c1Cl [Compound 64, ethyl 6-amino-5-chloro-2-(4-chlorophenyl)-4-pyrimidinecarboxylate]",pest or weed control at 31 g/ha,"[1]; post-emergence, Postemergence, read-out: Plant response rating (scale of 0 to 100), Crabgrass",70%
same,pest or weed control at 62 g/ha,[1]; [11],80%
same,pest or weed control at 125 g/ha,[1]; [11],85%
same,pest or weed control at 250 g/ha,"[1]; post-emergence, Postemergence, scale 0 to 100, read-out: Plant response rating, Crabgrass",90%
same,pest or weed control at 31 g/ha,[1]; [12],0%
same,pest or weed control at 62 g/ha,[1]; [12],0%
same,pest or weed control at 125 g/ha,[1]; [13],70%
same,pest or weed control at 250 g/ha,[1]; [13],90%
same,pest or weed control at 31 g/ha,"[2]; post-emergence, Postemergence, read-out: Plant response rating (scale of 0 to 100), Nutsedge, Yellow",40%
same,pest or weed control at 62 g/ha,[2]; [14],50%
same,pest or weed control at 125 g/ha,[2]; [14],50%
same,pest or weed control at 250 g/ha,"[2]; post-emergence, Postemergence, scale 0 to 100, read-out: Plant response rating, Nutsedge, Yellow",50%
same,pest or weed control at 31 g/ha,[2]; [15],0%
same,pest or weed control at 62 g/ha,[2]; [15],0%
same,pest or weed control at 125 g/ha,[2]; [16],0%
same,pest or weed control at 250 g/ha,[2]; [16],10%
same,plant injury at 31 g/ha,"soybean (Glycine max); post-emergence, Postemergence, read-out: Plant response rating (scale of 0 to 100), Soybean",90%
same,plant injury at 62 g/ha,soybean (Glycine max); [17],90%
same,plant injury at 125 g/ha,soybean (Glycine max); [17],100%
same,plant injury at 250 g/ha,"soybean (Glycine max); post-emergence, Postemergence, scale 0 to 100, read-out: Plant response rating, Soybean",100%
same,plant injury at 31 g/ha,soybean (Glycine max); [18],0%
same,plant injury at 62 g/ha,soybean (Glycine max); [18],85%
same,plant injury at 125 g/ha,soybean (Glycine max); [19],85%
same,plant injury at 250 g/ha,soybean (Glycine max); [19],85%
same,"Plant response rating (scale of 0 to 100), Oat, Wild",wild oat (Avena fatua); 31 g ai/ha,5
same,"Plant response rating, Oat, Wild","wild oat (Avena fatua); 250 g ai/ha, scale 0 to 100",10
same,pest or weed control at 62 g/ha,"wild oat (Avena fatua); Avena fatua, post-emergence, 62 g ai/ha, scale 0 to 100 (0 no effect, 100 complete control), read-out: Oat, Wild plant response rating",5%
same,pest or weed control at 125 g/ha,"wild oat (Avena fatua); Avena fatua, post-emergence, 125 g ai/ha, scale 0 to 100 (0 no effect, 100 complete control), read-out: Oat, Wild plant response rating",10%
same,"Plant response rating (scale of 0 to 100), Foxtail, Green",[3]; 31 g ai/ha,0
same,"Plant response rating, Foxtail, Green","[3]; 250 g ai/ha, scale 0 to 100",45
same,pest or weed control at 62 g/ha,"[3]; Setaria viridis, post-emergence, 62 g ai/ha, scale 0 to 100 (0 no effect, 100 complete control), read-out: Foxtail, Green plant response rating",30%
same,pest or weed control at 125 g/ha,"[3]; Setaria viridis, post-emergence, 125 g ai/ha, scale 0 to 100 (0 no effect, 100 complete control), read-out: Foxtail, Green plant response rating",40%
same,"Plant response rating (scale of 0 to 100), Bromegrass, Downy",[4]; 31 g ai/ha,10
same,"Plant response rating, Bromegrass, Downy","[4]; 250 g ai/ha, scale 0 to 100",20
same,pest or weed control at 62 g/ha,"[4]; Bromus tectorum, post-emergence, 62 g ai/ha, scale 0 to 100 (0 no effect, 100 complete control), read-out: Bromegrass, Downy plant response rating",15%
same,pest or weed control at 125 g/ha,"[4]; Bromus tectorum, post-emergence, 125 g ai/ha, scale 0 to 100 (0 no effect, 100 complete control), read-out: Bromegrass, Downy plant response rating",20%
same,"Plant response rating (scale of 0 to 100), Canarygrass",[5]; 31 g ai/ha,5
same,"Plant response rating, Canarygrass","[5]; 250 g ai/ha, scale 0 to 100",10
same,pest or weed control at 62 g/ha,"[5]; Phalaris minor, post-emergence, 62 g ai/ha, scale 0 to 100 (0 no effect, 100 complete control), read-out: Canarygrass plant response rating",5%
same,pest or weed control at 125 g/ha,"[5]; Phalaris minor, post-emergence, 125 g ai/ha, scale 0 to 100 (0 no effect, 100 complete control), read-out: Canarygrass plant response rating",10%
same,"Plant response rating (scale of 0 to 100), Wheat",[6]; 31 g ai/ha,0
same,"Plant response rating, Wheat","[6]; 250 g ai/ha, scale 0 to 100",10
same,plant injury at 62 g/ha,"[6]; Triticum aestivum, post-emergence, 62 g ai/ha, scale 0 to 100 (0 no effect, 100 complete control), read-out: Wheat plant response rating",0%
same,plant injury at 125 g/ha,"[6]; Triticum aestivum, post-emergence, 125 g ai/ha, scale 0 to 100 (0 no effect, 100 complete control), read-out: Wheat plant response rating",10%
same,"Plant response rating (scale of 0 to 100), Ryegrass, Italian",[7]; 31 g ai/ha,5
same,"Plant response rating, Ryegrass, Italian","[7]; 250 g ai/ha, scale 0 to 100",45
same,pest or weed control at 62 g/ha,"[7]; Lolium multiflorum, post-emergence, 62 g ai/ha, scale 0 to 100 (0 no effect, 100 complete control), read-out: Ryegrass, Italian plant response rating",30%
same,pest or weed control at 125 g/ha,"[7]; Lolium multiflorum, post-emergence, 125 g ai/ha, scale 0 to 100 (0 no effect, 100 complete control), read-out: Ryegrass, Italian plant response rating",35%
same,"Plant response rating (scale of 0 to 100), Barley",[8]; 31 g ai/ha,20
same,"Plant response rating, Barley","[8]; 250 g ai/ha, scale 0 to 100",100
same,plant injury at 62 g/ha,"[8]; Hordeum vulgare, post-emergence, 62 g ai/ha, scale 0 to 100 (0 no effect, 100 complete control), read-out: Barley plant response rating",20%
same,"Plant response rating (scale of 0 to 100), Blackgrass",[9]; 31 g ai/ha,40
same,"Plant response rating, Blackgrass","[9]; 250 g ai/ha, scale 0 to 100",50
same,pest or weed control at 62 g/ha,"[9]; Alopecurus myosuroides, post-emergence, 62 g ai/ha, scale 0 to 100 (0 no effect, 100 complete control), read-out: Blackgrass plant response rating",45%
same,pest or weed control at 125 g/ha,"[9]; Alopecurus myosuroides, post-emergence, 125 g ai/ha, scale 0 to 100 (0 no effect, 100 complete control), read-out: Blackgrass plant response rating",50%
same,"Plant response rating (scale of 0 to 100), Windgrass",[10]; 31 g ai/ha,40
same,"Plant response rating, Windgrass","[10]; 250 g ai/ha, scale 0 to 100",60
same,pest or weed control at 62 g/ha,"[10]; Apera spica-venti, post-emergence, 62 g ai/ha, scale 0 to 100 (0 no effect, 100 complete control), read-out: Windgrass plant response rating",55%
same,pest or weed control at 125 g/ha,"[10]; Apera spica-venti, post-emergence, 125 g ai/ha, scale 0 to 100 (0 no effect, 100 complete control), read-out: Windgrass plant response rating",55%
